# pKd: −log10 of the molar value. “And” between values parts separate entries of the source, which are not always exact repeats. Equal entries are not always repeated.
# Key:
# CDK9–cyclin T = biological target: T1, CDK9–cyclin T (Homo sapiens, UniProt P50750); experiment: Lanthascreen kinase binding assay, CDK9; conditions: for Lanthascreen TR-FRET signal (raw ratio), sheet CDK9: third titration set (r25), duplicates
# T1 construct: purchased Thermo Fisher
# Protocol: Lanthascreen experiments were performed using commercially available reagents (Thermo Fisher) and according to the manufacturer’s instructions.
# CDK12 = biological target: T2, CDK12 (Homo sapiens, UniProt Q16531+Q9NYV4); experiment: Label-free quantitative mass spectrometry in MDA-MB-231 cells, CDK12; format: cell-based
# T2 construct: endogenous in cells; host or cells: MDA-MB-231
# Protocol: (§1) MDA-MB-231 cells were treated with DMSO or a cyclin K degrader compound at 1 µM for 5 h. Cells were collected by centrifugation and washed with phosphate-buffered saline before snap freezing in liquid nitrogen. Cells were lysed by addition of lysis buffer (8 M urea, 50 mM NaCl, 50 mM 4-(2-hydroxyethyl)-1-piperazineethanesulfonic acid (EPPS) pH 8.5, and protease and phosphatase inhibitors) and homogenization by bead beating (BioSpec) for three repeats of 30 s at 2,400 rpm. Bradford assay was used to determine the final protein concentration in the clarified cell lysate. Then 50 µg of protein for each sample was reduced, alkylated and precipitated using methanol/chloroform as previously described, and the resulting washed precipitated protein was allowed to air dry. Precipitated protein was resuspended in 4 M urea, 50 mM HEPES pH 7.4, followed by dilution to 1 M urea with the addition of 200 mM EPPS, pH 8. Proteins were first digested with LysC (1:50; enzyme:protein) for 12 h at room temperature. The LysC digestion was diluted to 0.5 M urea with 200 mM EPPS pH 8 followed by digestion with trypsin (1:50; enzyme:protein) for 6 h at 37 °C. Sample digests were acidified with formic acid to a pH of 2–3 before desalting using C18 solid phase extraction plates (SOLA, Thermo Fisher Scientific). Desalted peptides were dried in a vacuum-centrifuged and reconstituted in 0.1% formic acid for liquid chromatography–mass spectrometry analysis.
# (§2) Data were collected using a TimsTOF Pro2 (Bruker Daltonics) coupled to a nanoElute LC pump (Bruker Daltonics) via a CaptiveSpray nano-electrospray source. Peptides were separated on a reversed-phase C18 column (25 cm × 75 µm inner diameter, […], IonOpticks) containing an integrated captive spray emitter. Peptides were separated using a 50 min gradient of 2–30% buffer B (acetonitrile in 0.1% formic acid) with a flow rate of 250 nl min^−1 and column temperature maintained at 50 °C.
# (§3) Data-dependent acquisition (DDA) was performed in Parallel Accumulation-Serial Fragmentation (PASEF) mode to determine effective ion mobility windows for downstream diaPASEF data collection. The ddaPASEF parameters included: 100% duty cycle using accumulation and ramp times of 50 ms each, one Trapped Ion Mobility Spectrometry(TIMS)-MS scan and ten PASEF ramps per acquisition cycle. The TIMS-MS survey scan was acquired between 100 m/z and 1,700 m/z and 1/K0 of 0.7–1.3 V s cm^−2. Precursors with one to five charges were selected, and those that reached an intensity threshold of 20,000 arbitrary units were actively excluded for 0.4 min. The quadrupole isolation width was set to 2 m/z for m/z < 700 and 3 m/z for m/z > 800, with the m/z between 700 m/z and 800 m/z being interpolated linearly. […] To perform diaPASEF, the precursor distribution in the DDA m/z-ion mobility plane was used to design an acquisition scheme for data-independent acquisition (DIA) data collection that included two windows in each 50 ms diaPASEF scan. Data were acquired using 16 of these 25 Da precursor double window scans (creating 32 windows) that covered the diagonal scan line for doubly and triply charged precursors, with singly charged precursors able to be excluded by their position in the m/z-ion mobility plane. These precursor isolation windows were defined between 400 m/z and 1,200 m/z and 1/K0 of 0.7–1.3 V s cm^−2.
# (§4) DirectDIA mode includes first extracting the DIA data into a collection of MS2 spectra which are searched using Spectronaut’s Pulsar search engine. The search results are then used to generate a spectral library which is then employed for the targeted analysis of the DIA data. MS/MS spectra were searched against a Swissprot human database (January 2021). Database search criteria largely followed the default settings for directDIA including: tryptic with two missed cleavages, fixed carbomidomethylation of cysteine, and variable oxidation of methionine and acetylation of protein N-termini and precursor Q-value (FDR) cut-off of 0.01. […]
# cyclin K = experiment: Label-free quantitative mass spectrometry in MDA-MB-231 cells, cyclin K; format: cell-based, human
# Protocol: as §1, §2, §3, §4
# CDK12–cyclin K and DDB1 = biological target: T3, CDK12–cyclin K and DDB1 (Homo sapiens, UniProt Q16531+Q9NYV4, K965R); experiment: TR-FRET Kd determination, quadratic fit, 50 nM or 10 nM CDK12–cyclin K; format: binding
# T3 construct: His6–CDK12 (a.a. 713–1,052); full-length or beta-propeller B domain deletion (ΔBPB: a.a. 396–705 deleted) constructs of His6–DDB1ΔBPB, StrepII–Avi–DDB1, or His6–Spy–DDB1; made in house; host or cells: Trichoplusia ni High Five insect cells (baculovirus)
# Excerpt: Equation (2) is a quadratic binding equation used for Kd determination,where Top and Bottom refer to the curve plateaus. […]
# [1] = label-free quantitative MS, replicate values
# [2] = normalised to DMSO = 1, replicate values
# [3] = 10 nM CDK12-cyclin K + 100 nM DDB1, n = 1
# T1 sequence (P50750 whole entry): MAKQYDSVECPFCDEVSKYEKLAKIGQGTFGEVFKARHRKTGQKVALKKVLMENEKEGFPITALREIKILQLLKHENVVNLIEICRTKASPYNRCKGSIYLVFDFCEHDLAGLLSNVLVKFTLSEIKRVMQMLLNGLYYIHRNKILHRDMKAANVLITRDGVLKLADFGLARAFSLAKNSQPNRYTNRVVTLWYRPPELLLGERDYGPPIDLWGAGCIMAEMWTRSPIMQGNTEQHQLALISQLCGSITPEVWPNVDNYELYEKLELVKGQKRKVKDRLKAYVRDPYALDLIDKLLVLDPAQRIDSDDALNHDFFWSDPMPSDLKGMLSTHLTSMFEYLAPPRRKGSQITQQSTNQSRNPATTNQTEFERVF
# T1 sequence (O60563 whole entry partner): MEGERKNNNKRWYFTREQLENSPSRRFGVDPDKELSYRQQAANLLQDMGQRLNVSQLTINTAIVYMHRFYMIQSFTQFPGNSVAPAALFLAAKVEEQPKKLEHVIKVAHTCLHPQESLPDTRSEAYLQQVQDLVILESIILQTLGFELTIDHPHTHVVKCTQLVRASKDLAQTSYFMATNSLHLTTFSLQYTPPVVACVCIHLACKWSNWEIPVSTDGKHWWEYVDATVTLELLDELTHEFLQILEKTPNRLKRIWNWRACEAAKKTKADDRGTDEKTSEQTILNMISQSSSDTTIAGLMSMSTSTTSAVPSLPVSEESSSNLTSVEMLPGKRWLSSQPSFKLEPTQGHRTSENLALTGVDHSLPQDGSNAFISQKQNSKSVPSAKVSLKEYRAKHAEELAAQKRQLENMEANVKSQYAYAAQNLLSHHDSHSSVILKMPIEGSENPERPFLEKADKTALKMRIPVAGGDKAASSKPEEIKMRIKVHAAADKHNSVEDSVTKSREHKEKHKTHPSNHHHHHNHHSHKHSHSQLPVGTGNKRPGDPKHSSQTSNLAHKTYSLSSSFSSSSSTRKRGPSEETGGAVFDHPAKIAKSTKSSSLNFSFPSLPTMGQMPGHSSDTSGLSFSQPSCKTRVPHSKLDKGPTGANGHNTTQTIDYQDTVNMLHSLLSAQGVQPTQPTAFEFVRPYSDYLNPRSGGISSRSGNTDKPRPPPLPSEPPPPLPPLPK
# T3 sequence (Q9NYV4 713-1052 K965R): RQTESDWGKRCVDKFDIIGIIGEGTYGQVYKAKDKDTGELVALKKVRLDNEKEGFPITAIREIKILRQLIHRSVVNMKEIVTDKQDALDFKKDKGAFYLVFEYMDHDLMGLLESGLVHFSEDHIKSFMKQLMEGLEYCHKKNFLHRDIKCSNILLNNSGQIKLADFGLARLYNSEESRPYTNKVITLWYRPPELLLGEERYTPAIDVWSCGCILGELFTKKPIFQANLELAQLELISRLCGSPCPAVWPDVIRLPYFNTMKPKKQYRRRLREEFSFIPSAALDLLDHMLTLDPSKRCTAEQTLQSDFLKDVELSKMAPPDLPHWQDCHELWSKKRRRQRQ
# T3 sequence (O75909 1-267 partner): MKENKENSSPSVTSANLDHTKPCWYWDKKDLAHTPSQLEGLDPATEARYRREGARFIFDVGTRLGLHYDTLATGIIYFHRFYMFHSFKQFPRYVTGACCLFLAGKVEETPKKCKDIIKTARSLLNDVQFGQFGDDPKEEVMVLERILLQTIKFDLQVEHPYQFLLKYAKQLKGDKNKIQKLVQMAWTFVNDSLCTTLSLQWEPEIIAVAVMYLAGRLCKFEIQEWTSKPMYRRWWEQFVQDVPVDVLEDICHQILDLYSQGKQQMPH
# T3 sequence (Q16531 whole entry): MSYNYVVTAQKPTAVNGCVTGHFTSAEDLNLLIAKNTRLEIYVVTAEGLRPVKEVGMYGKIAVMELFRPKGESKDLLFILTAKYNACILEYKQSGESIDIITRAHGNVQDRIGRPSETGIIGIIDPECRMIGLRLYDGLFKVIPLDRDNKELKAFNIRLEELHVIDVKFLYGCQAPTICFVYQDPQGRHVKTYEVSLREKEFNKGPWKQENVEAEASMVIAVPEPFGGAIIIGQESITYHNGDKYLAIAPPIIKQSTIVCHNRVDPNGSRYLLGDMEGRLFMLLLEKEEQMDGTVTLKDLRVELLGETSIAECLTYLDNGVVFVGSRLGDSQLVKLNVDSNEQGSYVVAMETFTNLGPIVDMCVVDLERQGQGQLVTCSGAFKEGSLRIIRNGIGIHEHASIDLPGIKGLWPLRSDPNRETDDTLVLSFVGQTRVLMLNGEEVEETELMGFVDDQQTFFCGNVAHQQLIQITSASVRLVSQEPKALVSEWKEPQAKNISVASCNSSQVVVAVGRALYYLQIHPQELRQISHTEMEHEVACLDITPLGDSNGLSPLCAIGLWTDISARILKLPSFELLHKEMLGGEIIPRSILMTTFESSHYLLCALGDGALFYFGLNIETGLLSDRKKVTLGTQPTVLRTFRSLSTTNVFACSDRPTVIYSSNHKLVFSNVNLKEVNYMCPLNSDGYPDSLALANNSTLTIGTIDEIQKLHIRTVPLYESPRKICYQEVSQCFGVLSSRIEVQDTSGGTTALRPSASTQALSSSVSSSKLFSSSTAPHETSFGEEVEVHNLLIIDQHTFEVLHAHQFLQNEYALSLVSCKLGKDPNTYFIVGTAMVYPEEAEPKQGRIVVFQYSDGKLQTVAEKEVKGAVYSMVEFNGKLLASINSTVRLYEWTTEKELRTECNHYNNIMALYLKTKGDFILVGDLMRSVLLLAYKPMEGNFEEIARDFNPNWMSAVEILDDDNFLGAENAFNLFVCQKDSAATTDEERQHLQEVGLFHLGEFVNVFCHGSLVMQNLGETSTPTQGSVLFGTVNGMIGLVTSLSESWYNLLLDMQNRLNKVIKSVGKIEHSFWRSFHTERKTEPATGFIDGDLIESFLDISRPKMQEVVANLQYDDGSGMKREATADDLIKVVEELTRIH
smiles,measurement,setting,value
CC[C@H](CO)Nc1nc(NCc2nc3cc(Cl)c(Cl)cc3[nH]2)c2ncn(C(C)C)c2n1 [DS17],IC50,"CDK9–cyclin T; Supplementary Table 2, read-out: Lanthascreen IC50 [nM] CDK9",3060 nM
same,"Lanthascreen TR-FRET signal (raw ratio), sheet CDK9",CDK9–cyclin T; compound 0.038147 nM,0.02187 and 0.01792
same,"Lanthascreen TR-FRET signal (raw ratio), sheet CDK9",CDK9–cyclin T; compound 0.152588 nM,0.02168 and 0.01994
same,"Lanthascreen TR-FRET signal (raw ratio), sheet CDK9",CDK9–cyclin T; compound 0.610352 nM,0.0196 and 0.01929
same,"Lanthascreen TR-FRET signal (raw ratio), sheet CDK9",CDK9–cyclin T; compound 9.76563 nM,0.02026 and 0.01917
same,"Lanthascreen TR-FRET signal (raw ratio), sheet CDK9",CDK9–cyclin T; compound 39.0625 nM,0.02086 and 0.01978
same,"Lanthascreen TR-FRET signal (raw ratio), sheet CDK9",CDK9–cyclin T; compound 156.25 nM,0.01948 and 0.0176
same,"Lanthascreen TR-FRET signal (raw ratio), sheet CDK9",CDK9–cyclin T; compound 625 nM,0.01695 and 0.01459
same,"Lanthascreen TR-FRET signal (raw ratio), sheet CDK9",CDK9–cyclin T; compound 2500 nM,0.01153 and 0.01174
same,"Lanthascreen TR-FRET signal (raw ratio), sheet CDK9",CDK9–cyclin T; compound 10000 nM,0.006855 and 0.006128
same,CDK12 peptide count,CDK12; [1],546.795 and 667.348
same,CDK12 peptide count (DMSO-normalised),CDK12; [2],0.6075 and 0.6893
same,"cyclin K depletion, result in words","cyclin K; MDA-MB-231 cells, 1 µM, 5 h",more effective at depleting cyclin K than CR8
same,cyclin K abundance (label-free MS),"cyclin K; individual replicates, sheet EDF7",47.1483 and 71.6427
same,cyclin K abundance (label-free MS),cyclin K; [1],47.1483 and 71.6427
same,CCNK peptide count (DMSO-normalised),cyclin K; [2],0.02576 and 0.03985
same,average CCNK peptide count,cyclin K; sheet EDF7,59.3955
same,pKd,CDK12–cyclin K and DDB1; [3],> 9.00
same,TR-FRET Kd*,CDK12–cyclin K and DDB1; [3],subnanomolar range
same,TR-FRET signal,"CDK12–cyclin K and DDB1; 10 nM CDK12-cyclin K, compound 0.468 nM",0.1296
same,TR-FRET signal,"CDK12–cyclin K and DDB1; 10 nM CDK12-cyclin K, compound 2.16 nM",0.2552
same,TR-FRET signal,"CDK12–cyclin K and DDB1; 10 nM CDK12-cyclin K, compound 3.6 nM",0.4087
same,TR-FRET signal,"CDK12–cyclin K and DDB1; 10 nM CDK12-cyclin K, compound 7.92 nM",0.5094
same,TR-FRET signal,"CDK12–cyclin K and DDB1; 10 nM CDK12-cyclin K, compound 15.84 nM",0.5468
same,TR-FRET signal,"CDK12–cyclin K and DDB1; 10 nM CDK12-cyclin K, compound 30.96 nM",0.5623
same,TR-FRET signal,"CDK12–cyclin K and DDB1; 10 nM CDK12-cyclin K, compound 62.6399 nM",0.5693
same,TR-FRET signal,"CDK12–cyclin K and DDB1; 10 nM CDK12-cyclin K, compound 125.279 nM",0.582
same,TR-FRET signal,"CDK12–cyclin K and DDB1; 10 nM CDK12-cyclin K, compound 244.8 nM",0.5785
same,TR-FRET signal,"CDK12–cyclin K and DDB1; 10 nM CDK12-cyclin K, compound 993.6 nM",0.5613
same,TR-FRET signal,"CDK12–cyclin K and DDB1; 10 nM CDK12-cyclin K, compound 2001.6 nM",0.5626
same,pKd,"CDK12–cyclin K and DDB1; 50 nM CDK12-cyclin K + 100 nM DDB1, n = 1",> 9.00
same,TR-FRET signal,"CDK12–cyclin K and DDB1; 50 nM CDK12-cyclin K, compound 0.468 nM",0.2322
same,TR-FRET signal,"CDK12–cyclin K and DDB1; 50 nM CDK12-cyclin K, compound 2.16 nM",0.3077
same,TR-FRET signal,"CDK12–cyclin K and DDB1; 50 nM CDK12-cyclin K, compound 3.6 nM",0.4714
same,TR-FRET signal,"CDK12–cyclin K and DDB1; 50 nM CDK12-cyclin K, compound 7.92 nM",0.8383
same,TR-FRET signal,"CDK12–cyclin K and DDB1; 50 nM CDK12-cyclin K, compound 15.84 nM",1.774
same,TR-FRET signal,"CDK12–cyclin K and DDB1; 50 nM CDK12-cyclin K, compound 30.96 nM",3.053
same,TR-FRET signal,"CDK12–cyclin K and DDB1; 50 nM CDK12-cyclin K, compound 62.6399 nM",3.258
same,TR-FRET signal,"CDK12–cyclin K and DDB1; 50 nM CDK12-cyclin K, compound 125.279 nM",3.326
same,TR-FRET signal,"CDK12–cyclin K and DDB1; 50 nM CDK12-cyclin K, compound 244.8 nM",3.353
same,TR-FRET signal,"CDK12–cyclin K and DDB1; 50 nM CDK12-cyclin K, compound 993.6 nM",3.25
same,TR-FRET signal,"CDK12–cyclin K and DDB1; 50 nM CDK12-cyclin K, compound 2001.6 nM",3.218
